Literature values in US12440499B2, “Topical composition” (MC2 Therapeutics Limited, priority 2018, dated 2025).

Details: in presence of water

C=C1/C(=C\C=C2/CCC[C@]3(C)[C@@H]([C@H](C)/C=C/[C@@H](O)C4CC4)CC[C@@H]23)C[C@@H](O)C[C@@H]1O [calcipotriol]
pH value for maximum stability: above 8
